Data on 14 molecules can be found in patent US20100221758A1, “Sensors for Measuring Contaminants” (ECI Biotech Inc., priority 2007, published 2010).

Entries after “also recorded” stand apart in the source; their conditions may differ. Starred links: 1 amine or outer side, 2 acyl side, 3 side chain; linkers in the order of their positions; H or OH if unused. Residues, ends and D or L forms follow the SMILES beside them. *: point of attachment. Glutaryl = O=C(CCCC(=O)[*:2])[*:1]; AMC = Cc1cc(=O)oc2cc(N*)ccc12

Test [1] concerns S. aureus. As to the kind of experiment: Thioredoxin reductase cross-reactivity with DTNB substrate. As to conditions: up to 10^6 CFU/ml S. aureus. The format is biochemical. From the text: (§1) Since thioredoxin reductases are widely distributed in eukaryotes and prokaryotic cells, there is a possibility that thioredoxin reductases from other microbes may cross-react with this assay to give a false positive result. […] This high NTS activity is presumed to be useful for Mycoplasma for the detoxification of reactive oxygen compounds, since the Mollicutes have simple genomes that lack the genes encoding enzymes such as catalase, peroxidase and […] that function to remove H2O2 and other oxygen radicals in other bacteria (Gibson, D. G., et al., Complete chemical synthesis, assembly, and cloning of a Mycoplasma genitalium genome. Science. 319(5867):1215-1220 (2008)).

Test [2] has as its system E. coli. The test is described as above. The test is classed as biochemical. Particulars: up to 10^6 CFU/ml E. coli.
Text: as §1

Test [3] has as its system thioredoxin reductase (trxB). Briefly: Thioredoxin reductase (trxB) detection assay. The test is classed as biochemical, Mycoplasma hyorhinis. How it is done: Other fluorescent probes such as BODIPY®FL L-cystine and the 2′,7′-difluoro-4′-(2-(5-((dimethyl amino phenyl)azo)pyridyl)dithiopropionyl aminomethyl)fluorescein (abbreviated as DFDMAP-fluorescein) were studied to improve the sensitivity and the signal-to-noise ratio of the assay. Assays were performed with 40 mM Tris pH 7.2, 100 mM NaCl±detergent.
A detergent lysis buffer procedure that would hydrolyze the simple Mycoplasma cell membranes but not lyse the tissue culture cells was needed. Methyl-6-O—(N-heptylcarbamoyl)-α-D-glucopyranoside (HECAMEG) is a preferred detergent.
An alternative substrate to produce the thioredoxin reductase signal was to measure the release of horseradish peroxidase (HRP) from a chromatography bead tethered with the heterobifunctional crosslinking reagent 3,3′-dithiobis[sulfosuccinimidylpropionate] (DTSSP).

Test [4] deals with reductases produced by the bacteria. Briefly: Dye decolorization by bacterial culture supernatants. Particulars: bacterial culture supernatant, about 18 hours incubation. The test is classed as biochemical. How it is done: Each well was incubated with 10 μg of reactive black 5 plus 190 μl of culture supernatant from the following bacterium: E. coli, E. faecalis, S. aureus, P. aeruginosa, S. pyogenes, and S. marcescens. […] The decolorization is indicative of reductases produced by the bacteria.
Reductase activity can be measured through a Azo dye that gets decolorized by the release of reductases from many bacterial cells. […] A sensor placed on the bottom of a culture dish, buffer container or even on a swab for measuring the presence of mycoplasma in human fluids can be used to ascertain bacterial contamination or infection. The benefit of a simple azo dye sensor is low cost although it may not specifically detect different bacteria. […] Each well was incubated with 10 μg of reactive black 5 plus 190 μl of filtered culture supernatant from the following bacterium: E. coli, E. faecalis, S. aureus, P. aeruginosa, S. pyogenes, and S. marcescens. […] The decolorization is indicative of reductases produced by the bacteria.

For test [5], the system named is Mycoplasma cells. As to the kind of experiment: Detergent lysis buffer procedure for trxB assay. The test is classed as cell-based. Here is the method:
A detergent lysis buffer procedure that would hydrolyze the simple Mycoplasma cell membranes but not lyse the tissue culture cells was needed. Methyl-6-O—(N-heptylcarbamoyl)-α-D-glucopyranoside (HECAMEG) is a preferred detergent. […] As expected, 0.1 mM NADPH enhanced the activity of trxB (FIG. 12). As a substrate for trxB, Bodipy® FL L-cystine provided a signal that was 7500 times that of the buffer control, however this signal was an artifact of the digitonin.

The test system of test [6] is M. hyorhinis. As to the kind of experiment: Effect of divalent cations on Vmax, MCA-Leu substrate. The test is classed as biochemical, Mycoplasma hyorhinis. Set-up: unit not given here. As to conditions: 1 mM additive in place of 1 mM MgCl2. How it is done:
(§2) A presently preferred substrate is leu-MCA that had significant activity above the uninfected media control under the gentle conditions used to lyse the Mycoplasma (0.05% HECAMEG, 1 mM MgCl2, 100 mM NaCl, 40 mM Tris buffer, pH 8.5). The MCA-Leu substrate produces a signal level of 500 mOD in 30 minutes with M. hyorhinis, while M. hyorhinis has weak activity for arg-MCA.
Detergent lysis of M. hyorhinis with HECAMEG gives better signal than sonication. Manganese or magnesium also improves the signal to noise ratio.

Test [7] has as its system lon ATP-dependent protease. As to the kind of experiment: Assays for proteolytic activity, fluorogenic MCA substrate (Table 5). The test is classed as biochemical, Mycoplasma hyorhinis. Set-up: unit not given beside the values. From the text: (§3) Further studies examined the suitability of the […] for use in a diagnostic test. These studies used several fluorogenic substrates consisting of small chain amino acids coupled to a methoxy coumarin fluorescent probe (MCA, (7-methoxycoumarin-4-yl)acetyl). The test conditions were “buffer,” phosphate-buffered saline (PBS), “uninfected medium,” medium from cell cultures not infected with Mycoplasma, “infected medium,” medium from cell cultures infected with Mycoplasma, and a Mycoplasma positive control derived from a Mycoplasma culture. In each case the uninfected media control had substantial background proteolytic activity, with pepA being the most candidate with a signal-to-noise ratio (S/N) of about 2, where S/N=(Vmax infected medium)/(Vmax uninfected medium).

The subject of test [8] is M. hyorhinis. As to the kind of experiment: Vmax measured using MCA labeled substrates with gentle HECAMEG lysis. The test is classed as biochemical, Mycoplasma hyorhinis. Set-up: Vmax: unit not given here. How it is done:
as §2

Test [9] has as its system map Methionine aminopeptidase. Briefly: Assays for proteolytic activity, fluorogenic MCA substrate (Table 5). The format is biochemical, Mycoplasma hyorhinis. More on the design: unit not given beside the values.
Text: as §3

Test [10] relates to pepA Leucine aminopeptidase. Described as above. The test is classed as biochemical, Mycoplasma hyorhinis.
Text: as §3

On to `O=C(O)c1cc(SSc2ccc([N+](=O)[O-])c(C(=O)O)c2)ccc1[N+](=O)[O-]` [DTNB, 5,5′-Dithio-bis-(2-nitrobenzoic acid)], for which the “hydrolysis / thioredoxin reductase activity” value in test [1] and in [2] was “no significant activity; also recorded: no appreciable hydrolysis” each time.
Take `Cc1cc(C)n2c1C=C1C=CC(CCC(=O)N[C@@H](CSSC[C@H](NC(=O)CCC3=[N+]4C(=Cc5c(C)cc(C)n5[B-]4(F)F)C=C3)C(=O)O)C(=O)O)=[N+]1[B-]2(F)F` [Bodipy® FL L-cystine, BODIPY®FL L-cystine]: in test [3] (signal was an artifact of the digitonin), the “signal relative to buffer control” value stood at 7500 times.
Turning to `Nc1c(N=Nc2ccc(S(=O)(=O)CCOS(=O)(=O)[O-])cc2)c(S(=O)(=O)[O-])cc2cc(S(=O)(=O)[O-])c(N=Nc3ccc(S(=O)(=O)CCOS(=O)(=O)[O-])cc3)c(O)c12.[Na+].[Na+].[Na+].[Na+]` [reactive black 5], the decolorization result in test [4] is “completely decolorized”.
For the molecule `CN(C)c1ccc(N=Nc2ccc(SSCCC(=O)NCc3c(O)c(F)cc4c(-c5ccccc5C(=O)O)c5cc(F)c(=O)cc-5oc34)nc2)cc1` [DFDMAP fluorescein, 2′,7′-difluoro-4′-(2-(5-((dimethylaminophenyl)azo)pyridyl)dithiopropionylaminomethyl)fluorescein], the detection level in test [3] (at 10^7-10^8 CFU/ml) is reported as 10,000-20,000 RFU.
For the molecule `CCCCCCCNC(=O)OC[C@H]1O[C@H](OC)[C@H](O)[C@@H](O)[C@@H]1O` [HECAMEG, Methyl-6-O—(N-heptylcarbamoyl)-α-D-glucopyranoside], in [5], the “concentration sufficient to lyse Mycoplasma cells while not disrupting the membranes of the cultured cells” value is listed as 0.5%.
Regarding `CCN(Cc1cccc(S(=O)(=O)[O-])c1)c1ccc(C(=C2C=CC(=[N+](CC)Cc3cccc(S(=O)(=O)[O-])c3)C=C2)c2ccccc2S(=O)(=O)[O-])cc1.[Na+].[Na+]` [blue dye number 1], the decolorization entry in [4] is listed as “not decolorized”.
Consider `O=S(=O)([O-])[O-].[Mg+2]` [MgSO4], for which the “Vmax, MCA-Leu Substrate” value in [6] (Buffer) is reported as 483; in [6] (Infected) it was 90365; in [6] (Uninfected) it was 5125.
For `Cc1cc(=O)oc2cc(NC(=O)[C@H](Cc3ccccc3)NC(=O)[C@H](C)NC(=O)[C@H](C)NC(=O)CCCC(=O)O)ccc12` [glt-ala-ala-phe-MCA] (Glutaryl-Ala-Ala-Phe-{AMC}), the Vmax is on record as 55.8 in test [7] (Buffer (PBS)), 1802 in test [7] (Infected medium), 3354 in test [7] (Mycoplasma positive control) and 1460 in test [7] (Uninfected medium).
Regarding “methionine-(7-methoxycoumarin-4-yl)acetyl [met-MCA]”, the Vmax in test [8] (Buffer) is recorded as 125; in test [8] (Infected medium), 302082; in test [8] (Medium), 1731; in test [8] (Uninfected medium), 19004; in test [9] (Buffer (PBS)), 19.4; in test [9] (Infected medium) it was 627. Moreover, the Vmax came to 733 in test [9] (Mycoplasma positive control) and 430 in test [9] (Uninfected medium).
Regarding “leucine-(7-methoxycoumarin-4-yl)acetyl [leu-MCA]”, the Vmax is 236 in [8] (Buffer); 415190 in test [8] (Infected medium); 2118 in test [8] (Medium); 17422 in test [8] (Uninfected medium); 2874 in test [10] (Buffer (PBS)); 906 in test [10] (Infected medium). Further, the Vmax in [10] (Mycoplasma positive control) came out at 522; in [10] (Uninfected medium), 454. Further, the signal level in [8] (in 30 minutes with M. hyorhinis) is given as 500 mOD.
Take `O=C(O)CN(CCN(CC(=O)O)CC(=O)O)CC(=O)O` [EDTA]: the “Vmax, MCA-Leu Substrate” value in test [6] (Buffer) is listed as 0; in [6] (Infected), 45241; in test [6] (Medium) it was 1710; in test [6] (Uninfected) it was 3873.
In the case of `CN(C)c1ccc(N=Nc2ccc(C(=O)O)cc2)cc1` [DABCYL, 4-((4-(dimethylamino)phenyl)azo)benzoic acid], the decolorization entry in test [4] is “completely decolorized”.
Take “arginine-(7-methoxycoumarin-4-yl)acetyl [arg-MCA]”: in test [8] (0.05% HECAMEG, 1 mM MgCl2, 100 mM NaCl, 40 mM Tris buffer, pH 8.5), the “activity of M. hyorhinis for substrate” value is recorded as “weak activity”. In addition, the Vmax worked out at 0 in [8] (Buffer), 60903 in test [8] (Infected medium), 676 in test [8] (Medium) and 29034 in test [8] (Uninfected medium).
For the molecule `[Cl][Mn][Cl]` [MnCl2], in test [6] (Medium), the “Vmax, MCA-Leu Substrate” value stood at 1703.
